Laboratory results as given in patent US12485121B2, “Antiviral agents for the treatment and prevention of HIV infection” (Pharmasyntez, Joint Stock Company, priority 2020, dated 2025).

System: HIV-1 subtype A strain 12RU 69831
Test: Inhibition of HIV-1 reproduction / protection of infected MT-4 cells (living cell concentration, p24 production)
Format: cell-based
Settings: Human immunodeficiency virus 1, MT4, MT-4 cells infected with HIV-1 at a constant virus dose of 300 CCID50; read-out: Activity against HIV-1 12RU 69831 strain (subtype A)
Protocol: Evaluation of HIV reproduction inhibition/protection of human cells by anti-HIV products of the present invention was conducted by measuring change in living cells concentration in experimental wells with MT-4 cells infected with HIV-1, as well as by the production of viral protein p24 with adding different concentrations of compounds according to the present invention. Antiviral activity of products against HIV-1 subtype A strain 12RU 69831 was determined, when the cell culture was infected with a constant dose of virus, corresponding to 300 CCID50.

Structure (SMILES) | IC50
Cc1cccc(C)c1Oc1nc(Nc2ccc(C#N)cc2)nc2c1CCN(Cc1ccccc1)C2 [BB0273459] | 74.3 µM
C#CCOc1ccccc1CN1CCc2nc(Nc3ccc(C#N)cc3)nc(Oc3c(C)cc(C#N)cc3C)c2C1 [BB0274141, 4-((2-((4-Cyanophenyl)amino)-6-(2-(prop-2-in-1-yloxy)benzyl)-5,6,7,8-tetrahydropyrido[4,3-d]pyrimidine-4-yl)oxy)-3,5-dimethylbenzonitrile] | 174 µM
Cc1cc(C#N)cc(C)c1Oc1nc(Nc2ccc(C#N)cc2)nc2c1CCN(C1CCNCC1)CC2 [BB0274028, 4-((2-((4-Cyanophenyl)amino)-7-(piperidine-4-yl)-6,7,8,9-tetrahydro-5H-pyrimido[4,5-d]azepine-4-yl)oxy)-3,5-dimethylbenzonitrile] | 16.2 µM
Cc1cc(C#N)cc(C)c1Oc1nc(Nc2ccc(C#N)cc2)nc2c1CCNCC2 [BB0274021, 4-((2-((4-Cyanophenyl)amino)-6,7,8,9-tetrahydro-5H-pyrimido[4,5-d]azepine-4-yl)oxy)-3,5-dimethylbenzonitrile] | 0.0102 µM
Cc1cc(C#N)cc(C)c1Oc1nc(Nc2ccc(C#N)cc2)nc2c1CNCC2 [BB0273963, 4-((2-((4-Cyanophenyl)amino)-5,6,7,8-tetrahydropyrido[4,3-d]pyrimidine-4-yl)oxy)-3,5-dimethylbenzonitrile] | 7.56 µM
Cc1cc(C#N)cc(C)c1Oc1nc(Nc2ccc(C#N)cc2)nc2c1CN(C(=O)[C@H](CCCCNC(=O)OC(C)(C)C)NC(=O)OC(C)(C)C)CC2 [BB0274130, (S)-Di-tert-butyl (6-(4-(4-cyano-2,6-dimethylphenoxy)-2-((4-cyanophenyl)amino)-7,8-dihydropyrido[4,3-d]pyrimidine-6(5H)-yl)-6-oxohexane-1,5-diyl)dicarbamate] | 240 µM
Cc1cc(C#N)cc(C)c1Oc1nc(Nc2ccc(C#N)cc2)nc2c1CN(C(=O)[C@@H](N)CCCCN)CC2 [BB0274131, (S)-4-((2-((4-Cyanophenyl)amino)-6-(2,6-diaminohexanoyl)-5,6,7,8-tetrahydropyrido[4,3-d]pyrimidine-4-yl)oxy)-3,5-dimethylbenzonitrile] | 0.667 µM
Cc1cc(C#N)cc(C)c1Oc1nc(Nc2ccc(C#N)cc2)nc2c1CN(C(=O)C(N)Cc1cnc[nH]1)CC2 (stereo not drawn) [BB0275622, 4-({6-[2-Amino-3-(1H-imidazole-5-yl)propanoyl]-2-[(4-cyanophenyl)amino]-5H,6H,7H,8H-pyrido[4,3-d]pyrimidine-4-yl}oxy)-3,5-dimethylbenzonitrile] | 0.032 µM
Cc1cc(C#N)cc(C)c1Oc1nc(Nc2ccc(C#N)cc2)nc2c1CN(S(N)(=O)=O)CC2 [BB0274239, 4-(4-Cyano-2,6-dimethylphenoxy)-2-[(4-cyanophenyl)amino]-5H,6H,7H,8H-pyrido[4,3-d]pyrimidine-6-sulfonamide] | 359 µM
Cc1cc(C#N)cc(C)c1Oc1nc(Nc2ccc(C#N)cc2)nc2c1CCN(S(C)(=O)=O)CC2 [BB0274135, 4-((2-((4-Cyanophenyl)amino)-7-(methylsulfonyl)-6,7,8,9-tetrahydro-5H-pyrimido[4,5-d]azepine-4-yl)oxy)-3,5-dimethylbenzonitrile] | 6.13 µM
Cc1cc(C#N)cc(C)c1Oc1nc(Nc2ccc(C#N)cc2)nc2c1CN(Cc1cccnc1)CC2 [BB0274138, 4-((2-((4-Cyanophenyl)amino)-6-(pyridine-3-ylmethyl)-5,6,7,8-tetrahydropyrido[4,3-d]pyrimidine-4-yl)oxy)-3,5-dimethylbenzonitrile] | 0.00676 µM
Cc1cc(C#N)cc(C)c1Oc1nc(Nc2ccc(C#N)cc2)nc2c1CCN(Cc1ccccn1)CC2 [BB0274014, 4-((2-((4-Cyanophenyl)amino)-7-(pyridine-2-ylmethyl)-6,7,8,9-tetrahydro-5H-pyrimido[4,5-d]azepine-4-yl)oxy)-3,5-dimethylbenzonitrile] | 5.98 µM
Cc1cc(C#N)cc(C)c1Oc1nc(Nc2ccc(C#N)cc2)nc2c1CN(C(=O)C(Cc1cnn(C(=O)OC(C)(C)C)c1)NC(=O)OC(C)(C)C)CC2 (stereo not drawn) [BB0274122, Tert-butyl 4-(2-((tert-butoxycarbonyl)amino)-3-(4-(4-cyano-2,6-dimethylphenoxy)-2-((4-cyanophenyl)amino)-7,8-dihydropyrido[4,3-d]pyrimidine-6(5H)-yl)-3-oxopropyl)-1H-pyrazole-1-carboxylate] | 18.9 µM
Cc1cc(C#N)cc(C)c1Oc1nc(Nc2ccc(C#N)cc2)nc2c1CCN(CC#N)CC2 [BB0274095, 4-((7-(cyanomethyl)-2-((4-cyanophenyl)amino)-6,7,8,9-tetrahydro-5H-pyrimido[4,5-d]azepine-4-yl)oxy)-3,5-dimethylbenzonitrile] | 11.3 µM
Cc1cc(/C=C/C(=O)O)cc(C)c1Oc1nc(Nc2ccc(C#N)cc2)nc2c1CCN(C(=O)OC(C)(C)C)CC2 [BB0273969, (E)-3-(4-((7-(Tert-butoxycarbonyl)-2-((4-cyanophenyl)amino)-6,7,8,9-tetrahydro-5H-pyrimido[4,5-d]azepine-4-yl)oxy)-3,5-dimethylphenyl)acrylic acid] | 10700 µM
Cc1cc(C#N)cc(C)c1Oc1nc(Nc2ccc(C#N)cc2)nc2c1CCN(C(=O)Cn1ccnc1C)CC2 [BB0274236, 4-((2-((4-Cyanophenyl)amino)-7-(2-(methyl-1H-imidazole-1-yl)acetyl)-6,7,8,9-tetrahydro-5H-pyrimido[4,5-d]azepine-4-yl)oxy)-3,5-dimethylbenzonitrile] | 0.0488 µM
Cc1cc(C#N)cc(C)c1Oc1nc(Nc2ccc(C#N)cc2)nc2c1CCN(Cc1cccn1C)CC2 [BB0274074] | 83.3 µM
Cc1cc(C#N)cc(C)c1Oc1nc(Nc2ccc(C#N)cc2)nc2c1CN(Cc1ccccc1O)CC2 [BB0274140, 4-((2-((4-Cyanophenyl)amino)-6-(2-hydroxybenzyl)-5,6,7,8-tetrahydropyrido[4,3-d]pyrimidine-4-yl)oxy)-3,5-dimethylbenzonitrile] | 27.8 µM
Cc1cc(C#N)cc(C)c1Oc1nc(Nc2ccc(C#N)cc2)nc2c1CCN(Cc1cccnc1)CC2 [BB0274015, 4-((2-((4-Cyanophenyl)amino)-7-(pyridine-3-ylmethyl)-6,7,8,9-tetrahydro-5H-pyrimido[4,5-d]azepine-4-yl)oxy)-3,5-dimethylbenzonitrile] | 29.9 µM

Other lines, results leading:

IC50 | Structure (SMILES)
2.07 µM | Cc1cc(C#N)cc(C)c1Oc1nc(Nc2ccc(C#N)cc2)nc2c1CN(C(=O)[C@H](N)CO)CC2 [BB0274123, (R)-4-((6-(2-Amino-3-hydroxypropanoyl)-2-((4-cyanophenyl)amino)-5,6,7,8-tetrahydropyrido[4,3-d]pyrimidine-4-yl)oxy)-3,5-dimethylbenzonitrile]
0.00341 µM | Cc1cc(C#N)cc(C)c1Oc1nc(Nc2ccc(C#N)cc2)nc2c1CN(C(=O)[C@H](C)N)CC2 [BB0274102, (S)-4-((6-(2-Aminopropanoyl)-2-((4-cyanophenyl)amino)-5,6,7,8-tetrahydropyrido[4,3-d]pyrimidine-4-yl)oxy)-3,5-dimethylbenzonitrile]
0.00552 µM | Cc1cc(C#N)cc(C)c1Oc1nc(Nc2ccc(C#N)cc2)nc2c1CN(C(=O)CN)CC2 [BB0274051, 4-((6-(2-Aminoacetyl)-2-((4-cyanophenyl)amino)-5,6,7,8-tetrahydropyrido[4,3-d]pyrimidine-4-yl)oxy)-3,5-dimethylbenzonitrile]
1220 µM | Cc1cc(C2OCCCO2)cc(C)c1Oc1nc(Nc2ccc(C#N)cc2)nc2c1CCN(C(=O)OC(C)(C)C)CC2 [BB0273892]
291 µM | Cc1cc(/C=C/C#N)cc(C)c1Oc1nc(Nc2ccc(C#N)cc2)nc2c1CCN(C(=O)OC(C)(C)C)CC2 [BB0274009, Tert-butyl 2-((4-cyanophenyl)amino)-4-(4-(2-cyanovinyl)-2,6-dimethylphenoxy)-8,9-dihydro-5H-pyrimido[4,5-d]azepine-7(6H)-carboxylate]
664 µM | Cc1cc(C#N)cc(C)c1Oc1nc(Nc2ccc(C#N)cc2)nc2c1CN(C(=O)C1CCCN1C(=O)OC(C)(C)C)CC2 (stereo not drawn) [BB0274097, Tert-butyl 2-(4-(4-cyano-2,6-dimethylphenoxy)-2-((4-cyanophenyl)amino)-5,6,7,8-tetrahydropyrido[4,3-d]pyrimidine-6-carbonyl)pyrrolidine-1-carboxylate]
230 µM | Cc1cc(C#N)cc(C)c1Oc1nc(Nc2ccc(C#N)cc2)nc2c1CCN(C(=O)C1CCCN1C(=O)OC(C)(C)C)CC2 (stereo not drawn) [BB0274063, Tert-butyl 2-(4-(4-cyano-2,6-dimethylphenoxy)-2-((cyanophenyl)amino)-6,7,8,9-tetrahydro-5H-pyrimido[4,5-d]azepine-7-carbonyl)pyrrolidine-1-carboxylate]
45.3 µM | Cc1cc(C#N)cc(C)c1Oc1nc(Nc2ccc(C#N)cc2)nc2c1CN(C(=O)[C@H](NC(=O)OC(C)(C)C)C(C)C)CC2 [BB0274126, (R)-Tert-butyl (1-(4-(4-cyano-2,6-dimethylphenoxy)-2-((4-cyanophenyl)amino)-7,8-dihydropyrido[4,3-d]pyrimidine-6(5H)-yl)-3-methyl-1-oxobutane-2-yl)carbamate]
0.364 µM | Cc1cc(C#N)cc(C)c1Oc1nc(Nc2ccc(C#N)cc2)nc2c1CCN(C(=O)C1CCNCC1)CC2 [BB0274026, 4-((2-((4-Cyanophenyl)amino)-7-(piperidine-4-carbonyl)-6,7,8,9-tetrahydro-5H-pyrimido[4,5-d]azepine-4-yl)oxy)-3,5-dimethylbenzonitrile]
1.69 µM | CC(=O)N1CCc2nc(Nc3ccc(C#N)cc3)nc(Oc3c(C)cc(C#N)cc3C)c2CC1 [BB0274145, 4-((7-Acetyl-2-((4-cyanophenyl)amino)-6,7,8,9-tetrahydro-5H-pyrimido[4,5-d]azepine-4-yl)oxy)-3,5-dimethylbenzonitrile]
1.73 µM | CCOC(=O)N1CCc2nc(Nc3ccc(C#N)cc3)nc(Oc3c(C)cc(C#N)cc3C)c2C1 [BB0273965, Ethyl 4-(4-cyano-2,6-dimethylphenoxy)-2-((4-cyanophenyl)amino)-7,8-dihydropyrido[4,3-d]pyrimidine-6(5H)-carboxylate]
